Consider two compounds from patent US20090246185A1, “CARDIAC DYSFUNCTION-AMELIORATING AGENT OR CARDIAC FUNCTION-MAINTAINING AGENT” (KANEKA CORPORATION, priority 2006, published 2009).

Marks after values point to notes of the source that are not given here.

The test system of data set [1] is ischemia-reperfusion model. The experiment in a line: Heart weight (body weight ratio) in rat ischemia-reperfusion model. In kind it is in vivo. The note with it: for body weight ratio of heart weight: left atrium / body weight ratio of heart weight: left ventricle / body weight ratio of heart weight: right atrium / body weight ratio of heart weight: right ventricle: male SD rats, ischemia-reperfusion, 30 mg/kg per day oral in corn oil, 5 weeks, average; for effect on increase in heart weight (edema), in words: rat ischemia-reperfusion model, 30 mg/kg per day oral, vs. control group. The protocol: (§1) Male SD rats (9-week-old, Japan SLC Inc.) were divided into four groups. Each rat was anesthetized with pentobarbital sodium (35-45 mg/kg, i.p.), and fixed at the dorsal position. A tracheal tube was orally inserted into the airway, artificial respiration was performed by an artificial respirator for small animals, and the medial wall of the thorax was opened to expose the heart. In three groups, the left anterior descending artery (LAD) was obstructed for 30 min with a surgical needle with a thread. At this time, an electrocardiogram was measured via an amplifier for electrocardiogram, and the presence or absence of occlusion was confirmed based on the changes in the ST electrical potential and cardiac muscle color. An ischemia-reperfusion model was prepared by reperfusing the blood flow after 30 min from the occlusion. Thereafter, in all groups, the thorax was closed, sutured, and disinfected with a veterinary Isodine solution.
(§2) The following samples were administered to each group for 1 week before the above-mentioned operation and 4 weeks after the operation (total 5 weeks).
(§3) Group for which occlusion treatment was performed, and oxidized coenzyme Q10 dissolved in corn oil was orally administered at a dosage of 30 mg/kg per day based on the amount of oxidized coenzyme Q10
(§4) Group for which occlusion treatment was performed, and […] dissolved in corn oil was orally administered at a dosage of 30 mg/kg per day based on the amount of reduced coenzyme Q10
After cardiac function evaluation, the animals were euthanized by dislocation of cervical spine under anesthesia, and the heart was removed. The right atrium weight, left atrium weight, right ventricle weight, left ventricle weight and overall weight of the heart (weight of both atria+weight of both ventricles) were measured. For evaluation, the body weight ratio of the right atrium weight, the body weight ratio of the left atrium weight, the body weight ratio of the right ventricle weight and the body weight ratio of the left ventricle weight were calculated.

Data set [2] relates to rats. The note with it: 1200 mg/kg/day consecutive administration for 52 weeks; cited from earlier work.
Data set [3] has as its system ischemia-reperfusion model. Kind of data set: Cardiac function evaluation (left ventricular end-diastolic pressure) in rat ischemia-reperfusion model. In kind it is in vivo. The note with it: for left ventricle end-diastolic pressure: male SD rats, LAD occlusion 30 min then reperfusion, 30 mg/kg per day oral in corn oil, 1 week before and 4 weeks after operation, mean ± standard error; for effect on elevation of the end-diastolic pressure (cardiac function), in words: rat ischemia-reperfusion model, 30 mg/kg per day oral, vs. control group. The protocol:
as §1, §2, §3, §4
After measuring the body weight on the next day of the final administration, the rats were fixed at the dorsal position under pentobarbital sodium (25-35 mg/kg, i.p.) anesthesia, and a mirror catheter was inserted into the right carotid artery. After confirmation of the stable condition, the left ventricle internal pressure wave pattern was led to a biological electric amplifier to enlarge same, and the left ventricular end-diastolic pressure (LVEDP) was measured.

Data set [4] in a line: Absorbability evaluation: total coenzyme Q10 in plasma and heart by HPLC. The note with it: male SD rats, 100 mg/kg oral in soybean oil once a day for 4 weeks; average, N=3.
Method: Male SD rats (5-week-old, Japan SLC Inc.) were each orally administered with soybean oil (control group), oxidized coenzyme Q10 (100 mg/kg) dissolved in soybean oil (oxidized coenzyme Q10 group) and reduced coenzyme Q10 (containing 1 wt % of oxidized coenzyme Q10; 100 mg/kg) dissolved in soybean oil (reduced coenzyme Q10 group) once a day for 4 consecutive weeks (each group N=3). After completion of the administration, blood samples were taken and the heart was removed, and the total amount of coenzyme Q10 (total amount of oxidized coenzyme Q10 and reduced coenzyme Q10) in plasma and heart was quantified by HPLC according to a conventional method.

For `COC1=C(OC)C(=O)C(C/C=C(\C)CC/C=C(\C)CC/C=C(\C)CC/C=C(\C)CC/C=C(\C)CC/C=C(\C)CC/C=C(\C)CC/C=C(\C)CC/C=C(\C)CCC=C(C)C)=C(C)C1=O` [oxidized coenzyme Q10, reference compound], in data set [1], the “body weight ratio of heart weight: left atrium” value was found to be 0.081, the “body weight ratio of heart weight: left ventricle” value is reported as 1.823, the “body weight ratio of heart weight: right atrium” value was found to be 0.135 and the “body weight ratio of heart weight: right ventricle” value is 0.498. The “effect on increase in heart weight (edema), in words” value in data set [1] was “suppressed increase in the heart weight in all parts”. For the same compound, the “toxic influence in chronic toxicity test” value in data set [2] is reported as “did not show a toxic influence”. Also, in data set [3], the “left ventricle end-diastolic pressure” value was 8.3 ± 0.7 mmHg and the “effect on elevation of the end-diastolic pressure (cardiac function), in words” value was “did not provide an ameliorating effect”.
In the case of `COc1c(O)c(C)c(C/C=C(\C)CC/C=C(\C)CC/C=C(\C)CC/C=C(\C)CC/C=C(\C)CC/C=C(\C)CC/C=C(\C)CC/C=C(\C)CC/C=C(\C)CCC=C(C)C)c(O)c1OC` [reduced coenzyme Q10], in data set [1], the “body weight ratio of heart weight: left atrium” value was found to be 0.089, the “body weight ratio of heart weight: left ventricle” value amounted to 1.879, the “body weight ratio of heart weight: right atrium” value is reported as 0.146 and the “body weight ratio of heart weight: right ventricle” value turned out to be 0.508. The “effect on increase in heart weight (edema), in words” value in data set [1] is “suppressed increase in the heart weight in all parts”. Also, in data set [4], the “total coenzyme Q10 concentration in heart” value came to 9.33 µg/mL and the “total coenzyme Q10 concentration in plasma” value was 0.39* μg/ml. For the same compound, in data set [3], the “left ventricle end-diastolic pressure” value was determined as 5.7 ± 0.4 mmHg and the “effect on elevation of the end-diastolic pressure (cardiac function), in words” value is “significant suppression of elevation of the end-diastolic pressure”.
